Data from patent US6790540B2, “Organic electroluminescent element material and organic electroluminescent element” (Nippon Steel Chemical Co., Ltd., priority 2000, dated 2004).

How the values were obtained:
[1] = Solubility (wt %) of compounds in chloroform and toluene; type: physicochemical; design: key: ◯: ∘, completely soluble; Δ, a slight amount remaining insoluble; X, a considerable amount remaining insoluble; conditions: for Solubility, Chloroform 0.1% soln. / Solubility, Toluene 0.1% soln.: 0.1% soln. (wt %); for Solubility, Chloroform 1% soln. / Solubility, Toluene 1% soln.: 1% soln. (wt %); for Solubility, Chloroform 5% soln. / Solubility, Toluene 5% soln.: 5% soln. (wt %); for Solubility, Chloroform 10% soln. / Solubility, Toluene 10% soln.: 10% soln. (wt %)
From the text: The symbols in the table stand for the following: ∘, completely soluble; Δ, a slight amount remaining insoluble; X, a considerable amount remaining insoluble.

[2] = Maximum PL wavelength in chloroform; type: physicochemical; conditions: in chloroform (Compound B: 0.1 mM, excitation 350 nm)
Protocol: Next, 5.0 g (0.016 mole) of Compound J, 2.12 g (0.016 mole) of zinc chloride and 4.74 g (0.047 mole) of triethylamine were suspended in 30 ml of ethanol and allowed to react at room temperature. After 3 hours, the separated yellow powder was filtered, washed with ethanol, and purified by column chromatography to give […] (90.0%) of Compound B as yellow crystals. The maximum PL wavelength of Compound B in chloroform was 509 nm (concentration, 0.1 mM; solvent, CHCl3; excitation, 350 nm).

Row | SMILES | Solubility, Chloroform 0.1% soln. [1] | Solubility, Chloroform 1% soln. [1] | Solubility, Chloroform 5% soln. [1] | Solubility, Chloroform 10% soln. [1] | Solubility, Toluene 0.1% soln. [1] | Solubility, Toluene 1% soln. [1] | Solubility, Toluene 5% soln. [1] | Solubility, Toluene 10% soln. [1] | maximum PL wavelength [2] [nm]
1 | c1cnc2c([O][Al]([O]c3cccc4cccnc34)[O]c3cccc4cccnc34)cccc2c1 [Alq3, aluminum-8-hydroxyquinoline complex] | Δ | X | X | X | X | X | X | X | 
2 | CCCCCCCCS(=O)(=O)[N-]c1ccccc1-c1nc2ccccc2o1.CCCCCCCCS(=O)(=O)[N-]c1ccccc1-c1nc2ccccc2o1.[Zn+2] [Compound 6a, zinc bis-2-(2-(n-octylsulfonamido)phenyl)benzoxazolate] | ◯ | ◯ | ◯ | ◯ | ◯ | ◯ | Δ | X | 
3 | CCCCCCCCS(=O)(=O)[N-]c1cccc2cccnc12.CCCCCCCCS(=O)(=O)[N-]c1cccc2cccnc12.[Zn+2] [Compound B, zinc bis-8-(n-octylsulfonamido)quinolinate] |  |  |  |  |  |  |  |  | 509
4 | CS(=O)(=O)[N-]c1cccc2cccnc12.CS(=O)(=O)[N-]c1cccc2cccnc12.[Zn+2] [Compound M, Zinc bis-8-(methylsulfonamido)quinolinate] | Δ | X | X | X | X | X | X | X | 505
5 | CCCCS(=O)(=O)[N-]c1cccc2cccnc12.CCCCS(=O)(=O)[N-]c1cccc2cccnc12.[Zn+2] [Compound N, Zinc bis-8-(n-butylsulfonamido)quinolinate] | ◯ | Δ | X | X | X | X | X | X | 510
